The supplement of paper PMC6045584
± gives the standard deviation of the averaged measurements.

Columns and labels:
SNX-5422 = compound: CC1(C)CC(=O)c2c(C(F)(F)F)nn(-c3ccc(C(N)=O)c(N[C@H]4CC[C@H](OC(=O)CN)CC4)c3)c2C1 [SNX-5422]; test: surviving fraction relative to DMSO-only wells; higher = less growth inhibition; conditions: exposure time: 5 days
Method in brief: (§1)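 Viability was scored with CellTiter-Glo luminescence and normalised to the median of DMSO-only wells as surviving fraction. Beforehand, log-phase tumour cell lines were seeded at 250–500 cells per well in 384-well plates, allowed 24 hours, and exposed continuously for five days to inhibitors at 0.5, 1, 5, 10, 50, 100, 500 and 1000 nM. Only lines whose three screens gave replicate Pearson r >0.7 and median Z' >0.3 were kept.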

AFATINIB = compound: CN(C)C/C=C/C(=O)Nc1cc2c(Nc3ccc(F)c(Cl)c3)ncnc2cc1O[C@H]1CCOC1 [AFATINIB]; test: as above; conditions: exposure time: 5 days
Method in brief: as §1

CANERTINIB = compound: C=CC(=O)Nc1cc2c(Nc3ccc(F)c(Cl)c3)ncnc2cc1OCCCN1CCOCC1 [CANERTINIB]; test: area under dose-response curve of surviving fraction (unscaled, Aref=0) (surviving fraction x log10(nM)); higher = more resistant; conditions: exposure time: 5 days; dose range 0.5-1000 nM
Method in brief: (§2)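 Three screens per tumour cell line were run in 384-well plates at eight inhibitor concentrations from 0.5 to 1000 nM over five days. Surviving fractions, from CellTiter-Glo luminescence normalised to DMSO-only wells, were fitted with 3-parameter logistic curves in the drc R package. The reported area under the curve is the unscaled activity area. It spans log10 dose, and Aref is 0.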

SAPACITABINE = compound: CCCCCCCCCCCCCCCC(=O)Nc1ccn([C@@H]2O[C@H](CO)[C@@H](O)[C@@H]2C#N)c(=O)n1 [SAPACITABINE]; test: as above; conditions: exposure time: 5 days; dose range 0.5-1000 nM
Method in brief: as §2

BI-2536 = compound: CC[C@@H]1C(=O)N(C)c2cnc(Nc3ccc(C(=O)NC4CCN(C)CC4)cc3OC)nc2N1C1CCCC1 [BI-2536]; test: as above; conditions: exposure time: 5 days; dose range 0.5-1000 nM
Method in brief: as §2

[1] = compound: Cn1cc(C2=Nc3cc(NC(=O)C(N)C4CCCCC4)cc4c3C2=CNNC4=O)cn1; test: as above; conditions: exposure time: 5 days; dose range 0.5-1000 nM
Method in brief: as §2

| Test System | surviving fraction (SNX-5422; 0.5 nM) | surviving fraction (SNX-5422; 1 nM) | surviving fraction (SNX-5422; 5 nM) | surviving fraction (SNX-5422; 10 nM) | surviving fraction (SNX-5422; 50 nM) | surviving fraction (SNX-5422; 100 nM) | surviving fraction (SNX-5422; 500 nM) | surviving fraction (SNX-5422; 1000 nM) | surviving fraction (AFATINIB; 0.5 nM) | surviving fraction (AFATINIB; 1 nM) | surviving fraction (AFATINIB; 5 nM) | surviving fraction (AFATINIB; 10 nM) | surviving fraction (AFATINIB; 50 nM) | surviving fraction (AFATINIB; 100 nM) | surviving fraction (AFATINIB; 500 nM) | surviving fraction (AFATINIB; 1000 nM) | area under dose-response curve (CANERTINIB) | area under dose-response curve (SAPACITABINE) | area under dose-response curve (BI-2536) | area under dose-response curve [1] |
| --- | --- | --- | --- | --- | --- | --- | --- | --- | --- | --- | --- | --- | --- | --- | --- | --- | --- | --- | --- | --- |
| NOS1 BONE | 1.1 ± 0.11 | 1.08 ± 0.052 | 1.16 ± 0.067 | 0.947 ± 0.056 | 0.451 ± 0.037 | 0.276 ± 0.012 | 0.113 ± 0.0076 | 0.117 ± 0.014 | 0.993 ± 0.2 | 0.997 ± 0.014 | 1.05 ± 0.066 | 0.947 ± 0.04 | 1.13 ± 0.11 | 0.983 ± 0.1 | 0.238 ± 0.019 | 0.096 ± 0.0027 | 3.08 | 2.87 | 1.35 | 2.73 |
| MDAMB361 BREAST | 0.884 ± 0.064 | 0.974 ± 0.14 | 0.76 ± 0.043 | 0.816 ± 0.037 | 0.443 ± 0.025 | 0.879 ± 0.2 | 0.307 ± 0.0076 | 0.294 ± 0.015 | 0.932 ± 0.059 | 0.796 ± 0.034 | 0.81 ± 0.041 | 0.799 ± 0.06 | 0.682 ± 0.088 | 0.629 ± 0.04 | 0.535 ± 0.02 | 0.459 ± 0.027 | 2.35 | 2.49 | 1.68 | 1.88 |
| HOS BONE | 1.01 ± 0.015 | 1.04 ± 0.039 | 1.08 ± 0.016 | 1.04 ± 0.031 | 0.028 ± 0.001 | 0.051 ± 0.0078 | 0.0377 ± 0.0011 | 0.0417 ± 0.0021 | 1.01 ± 0.027 | 1.03 ± 0.012 | 1.017 ± 0.0066 | 1.01 ± 0.016 | 1.02 ± 0.014 | 1.02 ± 0.023 | 0.979 ± 0.048 | 0.858 ± 0.025 | 3.14 | 2.63 | 0.874 | 2.35 |
| COLO320DM LARGE INTESTINE | 1.11 ± 0.05 | 1.25 ± 0.046 | 1.24 ± 0.27 | 1.13 ± 0.12 | 0.581 ± 0.029 | 0.309 ± 0.035 | 0.113 ± 0.0058 | 0.103 ± 0.009 | 1.14 ± 0.075 | 1.06 ± 0.088 | 1.08 ± 0.14 | 1.06 ± 0.073 | 1.04 ± 0.083 | 1.04 ± 0.08 | 0.872 ± 0.093 | 0.634 ± 0.037 | 3.25 | 2.44 | 1.68 | 3.21 |
| MDAMB134 BREAST | 0.902 ± 0.096 | 1.17 ± 0.23 | 0.892 ± 0.26 | 0.956 ± 0.052 | 0.789 ± 0.098 | 0.884 ± 0.036 | 0.543 ± 0.0057 | 0.54 ± 0.12 | 1.07 ± 0.046 | 0.997 ± 0.15 | 1.24 ± 0.25 | 0.967 ± 0.15 | 1.09 ± 0.078 | 0.886 ± 0.076 | 0.741 ± 0.031 | 0.725 ± 0.12 | 2.36 | 2.57 | 2.89 | 2.44 |
| DU4475 BREAST | 1.07 ± 0.29 | 0.979 ± 0.18 | 1.04 ± 0.17 | 1.06 ± 0.26 | 0.03 ± 0.013 | 0.0313 ± 0.0065 | 0.029 ± 0.0052 | 0.0317 ± 0.0072 | 1.05 ± 0.26 | 1.08 ± 0.31 | 0.851 ± 0.034 | 1.11 ± 0.25 | 1.17 ± 0.15 | 0.997 ± 0.089 | 1.08 ± 0.25 | 0.788 ± 0.042 | 2.65 | 1.86 | 1.14 | 2.46 |
